Tests used:
[1] = target: Synaptic vesicular amine transporter (Rattus norvegicus, UniProt Q01827); format: functional
[2] = target: 5-hydroxytryptamine receptor 2A (Homo sapiens, UniProt P28223); format: functional, cell-based
[3] = target: Vascular endothelial growth factor receptor 2 (Homo sapiens, UniProt P35968); format: functional
[4] = target: T1, Alpha-2B adrenergic receptor (Homo sapiens, UniProt P18089)
T1 sequence (P18089 whole entry): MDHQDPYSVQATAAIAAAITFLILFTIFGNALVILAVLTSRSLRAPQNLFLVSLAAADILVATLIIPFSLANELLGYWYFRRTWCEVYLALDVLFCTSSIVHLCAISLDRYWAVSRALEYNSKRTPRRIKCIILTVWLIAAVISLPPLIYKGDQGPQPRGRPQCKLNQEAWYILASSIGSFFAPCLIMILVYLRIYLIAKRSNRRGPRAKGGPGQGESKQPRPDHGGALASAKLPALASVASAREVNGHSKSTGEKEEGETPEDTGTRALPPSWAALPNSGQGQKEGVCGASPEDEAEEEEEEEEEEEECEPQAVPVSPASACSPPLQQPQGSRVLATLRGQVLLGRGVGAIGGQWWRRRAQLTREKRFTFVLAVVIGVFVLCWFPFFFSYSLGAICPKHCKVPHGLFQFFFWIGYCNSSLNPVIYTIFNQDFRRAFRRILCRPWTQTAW

[5] = target: Sodium channel protein type 5 subunit alpha (Homo sapiens, UniProt Q14524); format: functional, cell-based
Chain of Sodium channel protein type 5 subunit alpha (Q14524 whole entry): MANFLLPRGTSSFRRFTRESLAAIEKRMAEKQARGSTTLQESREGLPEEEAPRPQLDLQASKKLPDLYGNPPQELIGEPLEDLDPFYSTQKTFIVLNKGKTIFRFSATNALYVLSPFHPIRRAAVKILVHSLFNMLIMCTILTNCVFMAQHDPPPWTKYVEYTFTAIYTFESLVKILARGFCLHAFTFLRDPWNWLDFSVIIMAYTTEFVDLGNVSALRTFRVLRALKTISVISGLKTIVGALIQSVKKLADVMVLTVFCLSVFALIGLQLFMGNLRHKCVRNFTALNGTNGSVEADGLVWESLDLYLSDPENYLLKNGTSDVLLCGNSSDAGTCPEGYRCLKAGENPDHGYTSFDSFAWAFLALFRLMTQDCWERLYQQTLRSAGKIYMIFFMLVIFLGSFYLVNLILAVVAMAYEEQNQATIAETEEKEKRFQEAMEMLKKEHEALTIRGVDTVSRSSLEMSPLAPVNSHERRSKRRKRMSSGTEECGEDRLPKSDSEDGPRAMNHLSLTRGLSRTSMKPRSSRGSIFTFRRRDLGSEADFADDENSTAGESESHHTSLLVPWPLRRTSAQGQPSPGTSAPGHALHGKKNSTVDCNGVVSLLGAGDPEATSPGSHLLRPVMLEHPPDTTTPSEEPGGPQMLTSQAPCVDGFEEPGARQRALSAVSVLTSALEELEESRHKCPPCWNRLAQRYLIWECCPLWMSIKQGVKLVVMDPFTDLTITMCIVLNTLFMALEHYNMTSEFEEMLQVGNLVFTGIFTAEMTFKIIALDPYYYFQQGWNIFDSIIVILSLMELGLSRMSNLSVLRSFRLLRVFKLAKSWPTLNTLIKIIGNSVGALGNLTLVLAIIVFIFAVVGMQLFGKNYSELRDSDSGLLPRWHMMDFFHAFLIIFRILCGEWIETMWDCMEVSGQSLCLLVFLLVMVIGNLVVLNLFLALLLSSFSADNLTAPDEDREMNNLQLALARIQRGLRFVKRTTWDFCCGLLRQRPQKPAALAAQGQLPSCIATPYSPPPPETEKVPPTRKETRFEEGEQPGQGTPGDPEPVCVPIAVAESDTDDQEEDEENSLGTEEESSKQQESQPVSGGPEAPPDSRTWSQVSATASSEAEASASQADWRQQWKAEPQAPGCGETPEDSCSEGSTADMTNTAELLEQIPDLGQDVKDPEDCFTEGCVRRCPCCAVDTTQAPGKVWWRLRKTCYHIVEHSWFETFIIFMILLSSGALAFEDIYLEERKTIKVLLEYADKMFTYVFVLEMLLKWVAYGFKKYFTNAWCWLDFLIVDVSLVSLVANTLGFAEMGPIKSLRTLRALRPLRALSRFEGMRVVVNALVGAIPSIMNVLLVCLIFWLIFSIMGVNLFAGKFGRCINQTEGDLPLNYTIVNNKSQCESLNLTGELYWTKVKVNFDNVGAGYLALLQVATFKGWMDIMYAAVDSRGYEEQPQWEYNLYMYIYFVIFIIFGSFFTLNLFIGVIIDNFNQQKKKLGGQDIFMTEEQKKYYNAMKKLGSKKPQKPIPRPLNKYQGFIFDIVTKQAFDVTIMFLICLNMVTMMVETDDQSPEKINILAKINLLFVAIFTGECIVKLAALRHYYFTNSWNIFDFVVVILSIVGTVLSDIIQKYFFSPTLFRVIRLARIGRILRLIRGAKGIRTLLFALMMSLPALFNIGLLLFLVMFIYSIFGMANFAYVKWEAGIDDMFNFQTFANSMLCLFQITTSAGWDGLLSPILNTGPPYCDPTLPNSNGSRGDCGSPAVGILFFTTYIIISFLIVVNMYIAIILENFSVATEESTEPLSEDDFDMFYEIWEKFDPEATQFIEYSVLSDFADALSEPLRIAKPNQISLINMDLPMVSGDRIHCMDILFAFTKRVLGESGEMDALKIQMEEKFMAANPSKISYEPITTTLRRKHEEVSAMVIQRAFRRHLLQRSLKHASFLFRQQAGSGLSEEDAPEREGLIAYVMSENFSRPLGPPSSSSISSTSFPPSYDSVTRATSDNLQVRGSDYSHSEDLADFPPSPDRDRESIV

Estrogen receptor = target: T2, Estrogen receptor (Homo sapiens, UniProt P03372)
T2 sequence (P03372 whole entry): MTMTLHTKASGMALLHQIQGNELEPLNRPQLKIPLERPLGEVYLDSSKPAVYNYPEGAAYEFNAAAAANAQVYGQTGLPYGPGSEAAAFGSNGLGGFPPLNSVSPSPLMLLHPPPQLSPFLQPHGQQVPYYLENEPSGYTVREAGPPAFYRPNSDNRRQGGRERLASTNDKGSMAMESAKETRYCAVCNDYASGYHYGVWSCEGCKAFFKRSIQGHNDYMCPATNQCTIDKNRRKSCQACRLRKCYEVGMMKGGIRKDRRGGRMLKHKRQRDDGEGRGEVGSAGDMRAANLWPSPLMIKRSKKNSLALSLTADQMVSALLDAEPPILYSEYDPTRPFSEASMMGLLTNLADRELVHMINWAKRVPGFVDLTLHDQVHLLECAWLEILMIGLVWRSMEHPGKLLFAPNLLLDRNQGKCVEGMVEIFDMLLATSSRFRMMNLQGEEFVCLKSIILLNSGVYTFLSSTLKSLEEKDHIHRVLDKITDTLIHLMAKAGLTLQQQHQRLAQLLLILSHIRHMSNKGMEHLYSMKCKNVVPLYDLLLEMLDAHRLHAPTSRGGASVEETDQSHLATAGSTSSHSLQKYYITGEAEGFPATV

D(1A) dopamine receptor = D(1A) dopamine receptor (Homo sapiens, UniProt P21728)
Chain of D(1A) dopamine receptor (P21728 whole entry): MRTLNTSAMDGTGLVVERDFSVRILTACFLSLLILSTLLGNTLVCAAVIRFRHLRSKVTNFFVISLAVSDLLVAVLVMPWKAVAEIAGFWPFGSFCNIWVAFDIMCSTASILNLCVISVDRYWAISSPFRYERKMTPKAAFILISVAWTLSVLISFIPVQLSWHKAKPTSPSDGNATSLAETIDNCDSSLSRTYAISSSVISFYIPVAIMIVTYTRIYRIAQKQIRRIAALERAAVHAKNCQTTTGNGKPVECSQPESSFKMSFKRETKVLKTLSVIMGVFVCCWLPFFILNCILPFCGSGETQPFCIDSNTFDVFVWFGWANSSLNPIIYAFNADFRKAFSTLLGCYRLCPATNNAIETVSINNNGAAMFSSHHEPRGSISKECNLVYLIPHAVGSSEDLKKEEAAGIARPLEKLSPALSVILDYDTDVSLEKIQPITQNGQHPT

Estrogen receptor beta = Estrogen receptor beta (Homo sapiens, UniProt Q92731)
Glucagon receptor = Glucagon receptor (Homo sapiens, UniProt P47871)
[6] = target: T3, Alpha-1A adrenergic receptor (Homo sapiens, UniProt P35348)
T3 sequence (P35348 whole entry): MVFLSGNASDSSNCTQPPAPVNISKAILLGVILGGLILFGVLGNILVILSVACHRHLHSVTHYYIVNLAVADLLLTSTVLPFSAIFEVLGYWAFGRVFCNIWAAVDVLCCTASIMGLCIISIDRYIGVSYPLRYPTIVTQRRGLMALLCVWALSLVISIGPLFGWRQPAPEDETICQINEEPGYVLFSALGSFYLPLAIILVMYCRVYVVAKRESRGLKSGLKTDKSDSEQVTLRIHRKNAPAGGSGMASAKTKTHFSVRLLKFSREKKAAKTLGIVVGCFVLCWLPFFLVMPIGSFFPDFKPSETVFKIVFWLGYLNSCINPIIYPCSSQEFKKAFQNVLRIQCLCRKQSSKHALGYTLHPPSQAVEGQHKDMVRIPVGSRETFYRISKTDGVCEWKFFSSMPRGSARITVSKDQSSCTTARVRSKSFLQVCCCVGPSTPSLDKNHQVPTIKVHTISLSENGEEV

[7] = target: T4, Endothelin receptor type B (Homo sapiens, UniProt P24530)
T4 sequence (P24530 whole entry): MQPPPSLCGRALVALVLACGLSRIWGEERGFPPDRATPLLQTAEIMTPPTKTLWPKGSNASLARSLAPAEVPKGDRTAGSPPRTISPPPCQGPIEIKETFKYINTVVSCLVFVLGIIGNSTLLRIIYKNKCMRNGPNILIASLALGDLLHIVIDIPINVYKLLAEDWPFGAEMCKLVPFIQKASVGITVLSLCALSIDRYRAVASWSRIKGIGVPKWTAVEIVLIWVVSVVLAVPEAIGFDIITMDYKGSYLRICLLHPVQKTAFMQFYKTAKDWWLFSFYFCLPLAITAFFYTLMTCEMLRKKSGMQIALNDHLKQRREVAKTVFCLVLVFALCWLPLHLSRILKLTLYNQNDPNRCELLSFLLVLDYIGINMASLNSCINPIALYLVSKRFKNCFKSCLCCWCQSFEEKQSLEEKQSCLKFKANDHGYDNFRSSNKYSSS

[8] = target: T5, Corticotropin-releasing factor receptor 2 (Homo sapiens, UniProt Q13324)
T5 sequence (Q13324 whole entry): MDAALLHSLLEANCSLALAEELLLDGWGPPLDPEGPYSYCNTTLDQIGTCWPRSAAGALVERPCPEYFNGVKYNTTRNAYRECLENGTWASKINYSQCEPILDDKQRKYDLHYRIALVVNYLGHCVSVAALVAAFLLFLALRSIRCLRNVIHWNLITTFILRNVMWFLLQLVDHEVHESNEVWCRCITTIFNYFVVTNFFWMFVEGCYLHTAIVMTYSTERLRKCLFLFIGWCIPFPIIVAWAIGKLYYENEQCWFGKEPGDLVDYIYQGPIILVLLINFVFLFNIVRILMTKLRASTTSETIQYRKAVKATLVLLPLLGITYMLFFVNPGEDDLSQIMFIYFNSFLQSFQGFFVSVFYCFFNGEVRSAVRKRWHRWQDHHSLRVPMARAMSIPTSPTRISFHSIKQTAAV
Also: assay procedure not described here.

Chain of 5-hydroxytryptamine receptor 2A (P28223 whole entry): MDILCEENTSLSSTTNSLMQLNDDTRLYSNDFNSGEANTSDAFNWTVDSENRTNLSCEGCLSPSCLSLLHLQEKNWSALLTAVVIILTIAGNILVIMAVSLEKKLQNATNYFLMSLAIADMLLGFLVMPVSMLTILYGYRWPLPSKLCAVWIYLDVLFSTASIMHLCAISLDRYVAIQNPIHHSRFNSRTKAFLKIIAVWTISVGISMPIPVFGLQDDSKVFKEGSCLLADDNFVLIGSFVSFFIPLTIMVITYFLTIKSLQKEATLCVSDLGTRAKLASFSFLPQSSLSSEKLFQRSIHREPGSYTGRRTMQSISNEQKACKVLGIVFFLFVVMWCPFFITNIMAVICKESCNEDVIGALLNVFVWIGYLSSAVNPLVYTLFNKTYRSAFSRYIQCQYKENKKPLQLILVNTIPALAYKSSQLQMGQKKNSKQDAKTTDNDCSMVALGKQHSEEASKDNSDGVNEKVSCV
Chain of Vascular endothelial growth factor receptor 2 (P35968 whole entry): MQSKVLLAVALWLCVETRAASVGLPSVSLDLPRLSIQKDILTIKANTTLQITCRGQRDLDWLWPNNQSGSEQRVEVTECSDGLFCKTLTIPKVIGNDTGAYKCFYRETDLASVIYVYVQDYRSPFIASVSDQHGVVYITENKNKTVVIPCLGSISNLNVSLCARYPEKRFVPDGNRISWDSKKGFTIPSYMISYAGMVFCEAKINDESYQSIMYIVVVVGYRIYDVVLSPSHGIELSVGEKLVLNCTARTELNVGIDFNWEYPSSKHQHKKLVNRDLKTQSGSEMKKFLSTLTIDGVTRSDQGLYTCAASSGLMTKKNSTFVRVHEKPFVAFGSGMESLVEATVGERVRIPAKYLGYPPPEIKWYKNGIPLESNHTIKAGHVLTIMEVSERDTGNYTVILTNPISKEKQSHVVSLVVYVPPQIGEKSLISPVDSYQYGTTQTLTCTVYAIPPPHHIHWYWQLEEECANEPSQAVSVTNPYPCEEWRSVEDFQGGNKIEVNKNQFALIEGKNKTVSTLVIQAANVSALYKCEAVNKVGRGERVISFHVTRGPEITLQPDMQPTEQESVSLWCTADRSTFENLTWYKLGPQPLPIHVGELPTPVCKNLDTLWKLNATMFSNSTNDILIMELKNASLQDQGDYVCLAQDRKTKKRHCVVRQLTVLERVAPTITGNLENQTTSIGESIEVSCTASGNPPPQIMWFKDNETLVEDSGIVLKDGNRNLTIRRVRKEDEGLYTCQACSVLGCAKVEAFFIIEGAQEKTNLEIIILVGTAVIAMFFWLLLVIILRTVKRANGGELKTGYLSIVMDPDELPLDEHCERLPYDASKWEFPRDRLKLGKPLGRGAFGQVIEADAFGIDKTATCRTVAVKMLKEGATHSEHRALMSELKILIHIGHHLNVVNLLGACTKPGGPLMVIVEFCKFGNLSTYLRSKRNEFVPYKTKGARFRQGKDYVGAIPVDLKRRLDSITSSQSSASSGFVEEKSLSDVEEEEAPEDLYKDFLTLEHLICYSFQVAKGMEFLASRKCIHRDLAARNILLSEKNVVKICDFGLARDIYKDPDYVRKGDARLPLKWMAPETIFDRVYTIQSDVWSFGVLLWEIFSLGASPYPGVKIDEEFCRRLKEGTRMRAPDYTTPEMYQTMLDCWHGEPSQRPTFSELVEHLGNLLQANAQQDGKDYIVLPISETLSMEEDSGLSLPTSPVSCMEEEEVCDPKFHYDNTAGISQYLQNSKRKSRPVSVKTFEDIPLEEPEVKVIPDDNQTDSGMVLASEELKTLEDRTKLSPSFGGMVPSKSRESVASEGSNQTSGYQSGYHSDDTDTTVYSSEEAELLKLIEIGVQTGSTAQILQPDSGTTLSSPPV
Chain of Synaptic vesicular amine transporter (Q01827 whole entry): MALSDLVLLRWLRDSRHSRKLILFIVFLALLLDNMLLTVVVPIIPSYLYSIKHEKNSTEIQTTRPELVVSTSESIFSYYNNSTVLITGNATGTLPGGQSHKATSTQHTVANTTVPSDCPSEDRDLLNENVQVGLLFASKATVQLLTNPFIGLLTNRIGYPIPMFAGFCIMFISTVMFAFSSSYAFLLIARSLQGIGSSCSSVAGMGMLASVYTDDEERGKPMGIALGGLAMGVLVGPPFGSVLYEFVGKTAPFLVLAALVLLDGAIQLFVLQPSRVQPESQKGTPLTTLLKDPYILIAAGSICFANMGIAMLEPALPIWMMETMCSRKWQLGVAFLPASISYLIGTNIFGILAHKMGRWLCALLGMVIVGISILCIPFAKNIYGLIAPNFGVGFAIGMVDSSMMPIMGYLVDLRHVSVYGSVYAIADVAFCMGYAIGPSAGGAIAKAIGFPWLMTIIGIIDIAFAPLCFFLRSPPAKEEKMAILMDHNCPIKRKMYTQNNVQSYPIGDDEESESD

Compound | AC50 [2] [µM] | AC50 [3] [µM] | AC50 [4] [µM] | further results
CCOc1cc([C@@H](CS(C)(=O)=O)N2C(=O)c3cccc(NC(C)=O)c3C2=O)ccc1OC | > 30 | > 30 | > 30 | AC50 [1]: > 30 µM; AC50 [5]: > 50 µM
Cc1nnc(SCC2=C(C(=O)O)N3C(=O)[C@@H](NC(=O)Cn4cnnn4)[C@H]3SC2)s1 [CEFAZOLIN] | > 300 | > 300 | > 300 | AC50 (Estrogen receptor): > 30 µM
CC(C)(O/N=C(\C(=O)N[C@@H]1C(=O)N2C(C(=O)[O-])=C(C[n+]3ccccc3)CS[C@H]12)c1csc(N)n1)C(=O)O [CEFTAZIDIME] | > 300 | > 300 | > 300 | AC50 (Estrogen receptor): > 30 µM
CC(C)NC(=N)NC(=N)Nc1ccc(Cl)c(Cl)c1 [CHLORPROGUANIL] | > 30 | – | 10 | AC50 (D(1A) dopamine receptor): > 30 µM
Clc1ccc(Cn2c(CN3CCCC3)nc3ccccc32)cc1 [CLEMIZOLE] | > 30 | > 30 | 13 | –
Cc1onc(-c2c(F)cccc2Cl)c1C(=O)N[C@@H]1C(=O)N2[C@@H]1SC(C)(C)[C@@H]2C(=O)O [FLOXACILLIN] | > 30 | > 30 | > 30 | –
CC(CN1c2ccccc2Sc2ccccc21)N(C)C (centres undefined) [PROMETHAZINE] | – | – | – | AC50 (Estrogen receptor beta): > 30 µM; AC50 (Glucagon receptor): > 30 µM; AC50 (D(1A) dopamine receptor): > 30 µM; AC50 [6]: 0.0996 µM; AC50 [7]: > 30 µM; AC50 [8]: > 30 µM
S=P(N1CC1)(N1CC1)N1CC1 [THIOTEPA] | – | > 30 | – | –
